System: MCF-7 cells
Test: Annexin V-FITC/PI apoptosis analysis
Assay type: cell-based, human
Conditions: 24 h
Experimental: Apoptosis was evaluated using the Annexin V-FITC/PI Apoptosis Detection Kit (Vazyme). The harvested MCF-7 cells were first resuspended in 1× binding buffer from the kit to achieve a final concentration of 1×10^6 cells/ml. Next, 100 μL of the cell suspension, 5 μL of Annexin V, and 10 μL of PI were mixed and incubated in the dark for 15 min. Subsequently, 400 μL of 1× binding buffer was added to the mixture in preparation for apoptosis analysis.

COC(=O)C/C(C)=C/C(=O)O[C@@H]1C[C@@H](C)[C@H]2[C@@H](C=C[C@H](CC(C)C)[C@]2(C)C(=O)/C=C\O)[C@@H]1O [Tandyukisin]
apoptosis ratio (lower right quadrant, early apoptosis: PI negative, annexin V-FITC positive) (5 μM): 12.10%
apoptosis ratio (lower right quadrant, early apoptosis: PI negative, annexin V-FITC positive) (10 μM): 14.37%
apoptosis ratio (lower right quadrant, early apoptosis: PI negative, annexin V-FITC positive) (20 μM): 19.24%

Reference: PMC11094307, “Marine-derived EGFR inhibitors: novel compounds targeting breast cancer growth and drug resistance” (Frontiers in Pharmacology, 2024)
